# Measurements reported in PubChem BioAssay (NCI).
#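 Values below derive from 48-hour exposures of cells grown in 96-well plates, with endpoints linearly interpolated between the two concentrations bracketing the appropriate inhibition level. GI50 is the concentration that inhibits growth by half. TGI marks complete inhibition of growth.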
# How the values were obtained:
# Assay in all cases: growth of human tumour cells (NCI), 48 h
# [1] = test system: NCI-H23 lung
# [2] = test system: A498 renal
# [3] = test system: SN12C renal
# [4] = test system: U251 CNS
# [5] = test system: 786-0 renal
# [6] = test system: CCRF-CEM leukemia
# [7] = test system: UACC-257 melanoma
# [8] = test system: IGROV1 ovarian
# [9] = test system: T-47D breast
# [10] = test system: CAKI-1 renal
# [11] = test system: SF-539 CNS
# [12] = test system: ACHN renal
# [13] = test system: HCT-15 colon
# [14] = test system: BT-549 breast
# [15] = test system: MDA-MB-231 breast
# [16] = test system: SR leukemia
# [17] = test system: DU-145 prostate
# [18] = test system: COLO 205 colon
# [19] = test system: UACC-62 melanoma
# [20] = test system: SNB-19 CNS
# [21] = test system: MDA-MB-435
# [22] = test system: LOX IMVI melanoma
# [23] = test system: M14 melanoma
# [24] = test system: EKVX NSCLC
# [25] = test system: TK-10 renal
# [26] = test system: HT29 colon
# [27] = test system: SK-MEL-2 melanoma
# [28] = test system: SK-OV-3 ovarian
# [29] = test system: HOP-62 NSCLC
# [30] = test system: HS 578T breast
# [31] = test system: A549 NSCLC
# [32] = test system: MCF7 breast
# [33] = test system: NCI/ADR-RES ovarian
# [34] = test system: SNB-75 CNS
# [35] = test system: RXF 393 renal
# [36] = test system: KM12 colon
# [37] = test system: HL-60(TB) leukemia
# [38] = test system: K-562 leukemia
# [39] = test system: OVCAR-4 ovarian
# [40] = test system: SF-295 CNS
# [41] = test system: HOP-92 NSCLC
# [42] = test system: PC-3 prostate
# [43] = test system: OVCAR-3 ovarian
# [44] = test system: NCI-H522 lung
# [45] = test system: SK-MEL-28 melanoma
# [46] = test system: SW-620 colon
# [47] = test system: OVCAR-8 ovarian
# [48] = test system: MALME-3M melanoma
# [49] = test system: SK-MEL-5 melanoma
# [50] = test system: NCI-H226 lung
# [51] = test system: OVCAR-5 ovarian
# [52] = test system: SF-268 CNS
# [53] = test system: RPMI-8226 leukemia
# [54] = test system: MOLT-4 leukemia
# [55] = test system: UO-31 renal
# [56] = test system: HCT-116 colon
# [57] = test system: NCI-H460 lung
compound,measurement,setting,value
NCCNC1=CC(=O)c2nc3ccccc3c3ccnc1c23,GI50,[1],1240 nM
same,TGI,[1],3.9 µM
same,GI50,[2],9.55 µM
same,TGI,[2],> 100 µM
same,GI50,[3],1970 nM
same,TGI,[3],14.4 µM
same,GI50,[4],2300 nM
same,TGI,[4],22.7 µM
same,GI50,[5],2450 nM
same,TGI,[5],> 29.2 µM
same,GI50,[6],2530 nM
same,TGI,[6],> 50.7 µM
same,GI50,[7],3.34 µM
same,TGI,[7],> 36.7 µM
same,GI50,[8],1580 nM
same,TGI,[8],10.6 µM
same,GI50,[9],3.75 µM
same,TGI,[9],20.3 µM
same,GI50,[10],534 nM
same,TGI,[10],2960 nM
same,GI50,[11],1530 nM
same,TGI,[11],4.27 µM
same,GI50,[12],1910 nM
same,TGI,[12],19.6 µM
same,GI50,[13],1400 nM
same,TGI,[13],> 49.2 µM
same,GI50,[14],4.09 µM
same,TGI,[14],20.6 µM
same,GI50,[15],9.02 µM
same,TGI,[15],41.9 µM
same,GI50,[16],374 nM
same,GI50,[17],2110 nM
same,TGI,[17],29.5 µM
same,GI50,[18],8.72 µM
same,TGI,[18],29 µM
same,GI50,[19],1060 nM
same,TGI,[19],3.3 µM
same,GI50,[20],1790 nM
same,TGI,[20],8.33 µM
same,GI50,[21],1420 nM
same,TGI,[21],7.62 µM
same,GI50,[22],3.46 µM
same,TGI,[22],37.9 µM
same,GI50,[23],1480 nM
same,TGI,[23],4.75 µM
same,GI50,[24],16.7 µM
same,TGI,[24],53.5 µM
same,GI50,[25],25.9 µM
same,TGI,[25],> 100 µM
same,GI50,[26],22.6 µM
same,TGI,[26],> 73.6 µM
same,GI50,[27],3.05 µM
same,TGI,[27],29.6 µM
same,GI50,[28],3.69 µM
same,TGI,[28],> 65.2 µM
same,GI50,[29],362 nM
same,TGI,[29],6.41 µM
same,GI50,[30],2120 nM
same,TGI,[30],> 23.5 µM
same,GI50,[31],3.26 µM
same,TGI,[31],> 100 µM
same,GI50,[32],4.55 µM
same,TGI,[32],> 50.1 µM
same,GI50,[33],3.13 µM
same,TGI,[33],24.9 µM
same,GI50,[34],3.98 µM
same,TGI,[34],> 29 µM
same,GI50,[35],3.97 µM
same,TGI,[35],55.7 µM
same,GI50,[36],3.67 µM
same,TGI,[36],38.8 µM
same,GI50,[37],3.78 µM
same,TGI,[37],> 35.4 µM
same,GI50,[38],1400 nM
same,TGI,[38],> 24.3 µM
same,GI50,[39],6.47 µM
same,TGI,[39],> 47.8 µM
same,GI50,[40],1730 nM
same,TGI,[40],7.31 µM
same,GI50,[41],16.4 µM
same,TGI,[41],> 43.8 µM
same,GI50,[42],4.09 µM
same,TGI,[42],53.4 µM
same,GI50,[43],2630 nM
same,TGI,[43],11.8 µM
same,GI50,[44],1530 nM
same,TGI,[44],4.4 µM
same,GI50,[45],4.27 µM
same,TGI,[45],> 80.5 µM
same,GI50,[46],1750 nM
same,TGI,[46],15.8 µM
same,GI50,[47],3.83 µM
same,TGI,[47],> 100 µM
same,GI50,[48],2890 nM
same,TGI,[48],13.4 µM
same,GI50,[49],1590 nM
same,TGI,[49],4.19 µM
same,GI50,[50],2080 nM
same,TGI,[50],20.1 µM
same,GI50,[51],7.23 µM
same,TGI,[51],40.3 µM
same,GI50,[52],3.63 µM
same,TGI,[52],42.8 µM
same,GI50,[53],2010 nM
same,TGI,[53],> 40.7 µM
same,GI50,[54],3.39 µM
same,TGI,[54],> 36.9 µM
same,GI50,[55],1510 nM
same,TGI,[55],> 20.5 µM
same,GI50,[56],2300 nM
same,TGI,[56],14.8 µM
same,GI50,[57],732 nM
same,TGI,[57],5.56 µM
